Assay results taken from patent US6562609B1, “Cholesterol 25-hydroxylase” (Board of Regents, The University of Texas System, priority 1998, dated 2003).

Tests used:
[1] = target: T1, human 25-hydroxylase (Homo sapiens, UniProt O95992); assay: 25-hydroxylase activity in 293 cells transfected with the human cDNA; type: cell-based; conditions: treatment of transfected 293 cells
T1 construct: expressed in transfected cells; host or cells: human embryonic kidney 293 cells
T1 sequence (O95992 1-272): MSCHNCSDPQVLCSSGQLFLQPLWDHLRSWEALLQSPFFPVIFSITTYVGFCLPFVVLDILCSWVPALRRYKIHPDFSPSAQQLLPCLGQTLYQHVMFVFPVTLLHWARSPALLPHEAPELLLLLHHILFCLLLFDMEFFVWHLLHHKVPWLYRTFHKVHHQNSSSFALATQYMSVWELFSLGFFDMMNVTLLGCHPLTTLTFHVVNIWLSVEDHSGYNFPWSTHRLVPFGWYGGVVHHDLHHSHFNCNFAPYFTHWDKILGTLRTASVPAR
Description: (§1) Measurement of cholesterol 25-hydroxylase activity in whole cells—The transfection medium containing the cationic lipid was aspirated and replaced with 3 ml of Medium B (DMEM containing 10% newborn calf lipoprotein-poor serum, 100 u/ml penicillin, and 100 μg/ml streptomycin sulfate) supplemented with 5 μI of [4-^14C]cholesterol (56.6 mCi/mmol; 0.040 μCi/μl; New England Nuclear, Boston, Mass.). Cells were incubated for a further 60 h at 37° C. in an atmosphere of 8.8% CO2.
(§2) Media from the transfected cells were collected and extracted with 8 ml of chloroform:methanol (2:1, v/v). The organic phase from each sample was taken to dryness under a stream of nitrogen and residues were dissolved in 40 μl aliquots of chloroform:methanol (2:1, v/v) and applied to 20×20 cm prescored LK5DF silica gel TLC plates (Whatman, Hillsboro, Oreg.) with preadsorbent layers. The plates were developed in ethyl acetate:toluene (4:6, v/v), and exposed to a Fuji BAS-MP phosphoimager plate overnight. Phosphoimage analysis was then performed on a Fuji BAS 1000 apparatus.
This EST was used to isolate a near full-length cDNA encoding the human 25-hydroxylase as described in Experimental Procedures. Transfection into 293 cells of the human cDNA cloned in a pCMV6 vector produced abundant 25-hydroxylase enzyme activity.

[2] = target: T2, cholesterol 25-hydroxylase (Mus musculus, UniProt Q9Z0F5); assay: 25-hydroxylase activity in CHOP cells transfected with the murine cDNA; type: cell-based; conditions: treatment of transfected CHOP cells
T2 construct: a full-length mouse 25-hydroxylase cDNA fragment from plasmid pCMV-m25; expressed in transfected cells; host or cells: CHOP cells (CHO derivative expressing polyoma middle T antigen)
T2 sequence (Q9Z0F5 1-298): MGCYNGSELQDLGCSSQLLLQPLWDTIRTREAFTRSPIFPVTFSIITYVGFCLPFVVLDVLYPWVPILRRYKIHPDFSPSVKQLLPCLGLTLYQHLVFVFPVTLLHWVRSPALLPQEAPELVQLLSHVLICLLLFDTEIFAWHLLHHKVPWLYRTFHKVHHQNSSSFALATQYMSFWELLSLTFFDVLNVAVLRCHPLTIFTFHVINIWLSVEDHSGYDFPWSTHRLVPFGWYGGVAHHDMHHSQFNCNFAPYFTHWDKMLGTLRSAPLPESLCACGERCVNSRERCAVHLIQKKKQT
Description: as §1, §2
Inhibitor Studies—Transfection of CHOP cells was carried out as described above with the following exceptions. […] Cells and/or cells plus medium were harvested at the indicated times, extracted, and the conversion of substrate into [4-^14C]25-hydroxycholesterol product was determined by thin layer chromatography as described above. […]

[3] = test system: cholesterol 25-hydroxylase; assay: Inhibition of cholesterol 25-hydroxylase by sterols in transfected cells; type: cell-based; conditions: for rank order of inhibition of cholesterol 25-hydroxylase: 3 μM [14C]cholesterol, cells treated with 2-hydroxypropyl-β-cyclodextrin; for decrease of enzyme activity: sterol 3 μM, equimolar with [14C]cholesterol (3 μM)
Description: as §2
Inhibitor Studies—Transfection of CHOP cells was carried out as described above with the following exceptions. Cells were plated on Day 0 at a density of 150,000 cells/well in 6-well plates containing Medium C. On Day 1, cells were transfected with 2.7 μg of the indicated cholesterol 25-hydroxylase expression plasmid and 0.3 μg of pVA-1, using 12 μl of pfx-8 as transfection lipid. After 4 h, the lipid-DNA mixture was removed and 1.5 ml of Medium D was added. In certain experiments, this medium was aspirated and replaced on Day 2 with 1 ml per well of a 20 mg/ml solution of 2-hydroxypropyl-β-cyclodextrin (Sigma) in DMEM/Ham's F12 (1:1) medium and returned to the incubator. The cyclodextrin containing medium was replaced after 1-1.5 h with 1.5 ml of Medium D, and substrate and inhibitors were then added, each in a volume of 4.5 μl of ethanol. The concentration of [4-^14C]cholesterol substrate (specific activity=26.8 mCi/mmol) was 3 μM. Inhibitors were added to final concentrations of 3, 10 or 30 μM. Cells and/or cells plus medium were harvested at the indicated times, extracted, and the conversion of substrate into [4-^14C]25-hydroxycholesterol product was determined by thin layer chromatography as described above. The inhibitors used were cholesterol(5-cholesten-3β-ol), cholestanol (5α-cholestan-3β-ol), epicholesterol (5-cholesten-3α-ol), coprostanol(5β-cholestan-3β-ol), desmosterol(5,24-cholestadien-3β-ol), β-sitosterol(5-cholesten-24β-ethyl-3β-ol ), 25-hydroxycholesterol(cholest-5-ene-3β,25-diol), and 27-nor-25-oxocholesterol(27-nor-25-oxo-5-cholesten-3β-ol). All steroids were purchased from Steraloids Inc. (Wilton, N.H.), except cholesterol, which was from Sigma (St. Louis, Mo.).
We next tested the ability of different sterols to inhibit cholesterol 25-hydroxylase. In these experiments, 293 cells were transfected with a 25-hydroxylase cDNA, treated with 2-hydroxypropyl-β-cyclodextrin to remove endogenous cholesterol, and then incubated with 3 μM [^14C]cholesterol and the indicated concentrations of unlabeled inhibitor sterol. The rank order of inhibition for the […] sterols tested was desmosterol>cholestanol>25-hydroxycholesterol>epicholesterol>sitosterol>>coprostanol=25-oxo-27-nor-cholesterol. […] In the case of desmosterol (5,24-cholestadien-3β-ol), which can not be 25-hydroxylated due to the Δ^24 bond, this sterol appears to act as a true inhibitor.

[4] = test system: gene transcription; conditions: compared with 24- and 27-hydroxycholesterol, in vitro; cited from earlier work

Row | Molecule | rank order of inhibition of cholesterol 25-hydroxylase [3] | other results
1 | 2-hydroxypropyl-β-cyclodextrin | – | stimulation of 25-hydroxylase activity [1]: approximately five-fold; stimulation of 25-hydroxylase activity [2]: approximately 10 fold
2 | CC(C)CCC[C@@H](C)[C@H]1CC[C@H]2[C@@H]3CC[C@H]4C[C@@H](O)CC[C@]4(C)[C@H]3CC[C@]12C [cholestanol, 5α-cholestan-3β-ol] | desmosterol>cholestanol>25-hydroxycholesterol>epicholesterol>sitosterol>>coprostanol=25-oxo-27-nor-cholesterol | –
3 | CC[C@H](CC[C@@H](C)[C@H]1CC[C@H]2[C@@H]3CC=C4C[C@@H](O)CC[C@]4(C)[C@H]3CC[C@]12C)C(C)C [sitosterol, 5-cholesten-24β-ethyl-3β-ol] | desmosterol>cholestanol>25-hydroxycholesterol>epicholesterol>sitosterol>>coprostanol=25-oxo-27-nor-cholesterol | –
4 | C[C@H](CCCC(C)(C)O)[C@H]1CC[C@H]2[C@@H]3CC=C4C[C@@H](O)CC[C@]4(C)[C@H]3CC[C@]12C [25-hydroxycholesterol, cholest-5-ene-3β,25-diol] | desmosterol>cholestanol>25-hydroxycholesterol>epicholesterol>sitosterol>>coprostanol=25-oxo-27-nor-cholesterol | potency as regulator of gene transcription among natural oxysterols [4]: most potent regulator of gene transcription
5 | CC(C)CCC[C@@H](C)[C@H]1CC[C@H]2[C@@H]3CC=C4C[C@H](O)CC[C@]4(C)[C@H]3CC[C@]12C [epicholesterol, 5-cholesten-3α-ol] | desmosterol>cholestanol>25-hydroxycholesterol>epicholesterol>sitosterol>>coprostanol=25-oxo-27-nor-cholesterol | –
6 | CC(C)CCC[C@@H](C)[C@H]1CC[C@H]2[C@@H]3CC[C@@H]4C[C@@H](O)CC[C@]4(C)[C@H]3CC[C@]12C [coprostanol, 5β-cholestan-3β-ol] | desmosterol>cholestanol>25-hydroxycholesterol>epicholesterol>sitosterol>>coprostanol=25-oxo-27-nor-cholesterol | decrease of enzyme activity [3]: did not inhibit the enzyme
7 | CC(=O)CCC[C@@H](C)[C@H]1CC[C@H]2[C@@H]3CC=C4C[C@@H](O)CC[C@]4(C)[C@H]3CC[C@]12C [25-oxo-27-nor-cholesterol, 27-nor-25-oxo-5-cholesten-3β-ol] | desmosterol>cholestanol>25-hydroxycholesterol>epicholesterol>sitosterol>>coprostanol=25-oxo-27-nor-cholesterol | –
8 | CC(C)=CCC[C@@H](C)[C@H]1CC[C@H]2[C@@H]3CC=C4C[C@@H](O)CC[C@]4(C)[C@H]3CC[C@]12C [desmosterol, 5,24-cholestadien-3β-ol] | desmosterol>cholestanol>25-hydroxycholesterol>epicholesterol>sitosterol>>coprostanol=25-oxo-27-nor-cholesterol | decrease of enzyme activity [3]: 30%
